According to PMC8389922, “First-in-Class Cyclic Temporin L Analogue: Design, Synthesis, and Antimicrobial Assessment” (Journal of Medicinal Chemistry, 2021):
In brackets after ≈: the same amount, converted by molar mass. Bridge positions count the residues as written; N and C are the ends. Square brackets hold non-standard residues; d marks the D form. Peptide text beside a SMILES is read from it.

Tests used:
[1] = circular dichroism; conditions: water; pH ns; 25 °C; 50 uM
[2] = system: S. aureus ATCC 25923; assay type: cell-based, Staphylococcus aureus
Protocol: (§1) The antimicrobial activity of peptides 9–26 was assessed against a range of reference bacterial strains such as S. aureus ATCC 25923, Staphylococcus epidermidis ATCC 12228, Bacillus megaterium Bm11, E. coli ATCC 25922, P. aeruginosa ATCC 27853, and A. baumannii ATCC 19606 by the broth microdilution assay to determine the minimal growth inhibitory concentration (MIC, Table 1).[59] First, we evaluated the effects produced by the lactam bridge between Lys and Glu residues placed at different positions along the peptide sequence of reference 9. […] When the i,i+7 cyclization strategy was applied (20–23), a dramatic decrease of bacterial inhibition activity was observed. Specifically, the peptides 20, 22, and 23 only affected the microbial growth of the Gram-positive B. megaterium Bm11, at 12.5 μM. […] Peptide 25, which differs from 9 by the presence of an olefin bridge rather than lactam one, dramatically lost the activity (MIC > 100 μM) vs both Gram-positive and Gram-negative strains.
(§2) The determination of MICs was conducted as previously reported.[61] Aliquots of 50 μL of bacterial culture appropriately diluted were added to each well of a 96-well plate to reach a final cell density of 1 × 10^6 CFU/mL and a final peptide concentration ranging from 100 to 0.78 μM (final volume 100 μL).

[3] = system: S. epidermidis ATCC 12228; assay type: cell-based, Staphylococcus epidermidis
Protocol: as §1, §2

[4] = system: B. megaterium Bm11; assay type: cell-based, Bacillus megaterium
Protocol: as §1, §2

[5] = system: E. coli ATCC 25922; assay type: cell-based, Escherichia coli
Protocol: as §1, §2

[6] = system: P. aeruginosa ATCC 27853; assay type: cell-based, Pseudomonas aeruginosa
Protocol: as §1, §2

[7] = system: A. baumannii ATCC 19606; assay type: cell-based, Acinetobacter baumannii
Protocol: as §1, §2

[8] = CD spectroscopy, secondary structure content (DichroWeb); assay type: physicochemical
Protocol: The secondary structures of the linear peptide 9 and its stapled analogues 12, 17, and 24–26 were explored by circular dichroism (CD). CD spectroscopy studies were performed in water, and SDS or DPC micelles (20 mM) were used as mimics of the bacterial or mammalian membranes, respectively.[60]
The secondary structure content was predicted based on the CD spectra from 190 to 260 nm using the online server for protein secondary structure analyses, DichroWeb.[61] […] The hydrocarbon-bridged peptide 25 was slightly helical and structured in water, with weak ellipticity at 220 nm. Peptide 25 contains ∼13% regular helix and ∼10% distorted helix, according to the DichroWeb prediction.
All spectra were measured in the 260–190 nm spectral range, 1 nm bandwidth, 4 accumulations, and 100 nm/min scanning speed.[60] Each peptide was dissolved in water to prepare a 1 mM peptide stock solution. The CD spectra were performed in water, in SDS (20 mM) and in DPC (20 mM) using a peptide concentration of 50 μM. The secondary structure content of the peptides was predicted using the online server for protein secondary structure analyses DichroWeb.[61] Input and output units and the wavelength step were θ (mdeg) and 1.0 nm, respectively. The algorithm used was CONTIN-LL,[83] and reference database was set-7. When we have NRMSD > 0.100, we used the CDSSTR method.[83]

[9] = system: HaCaT cells (human immortalized keratinocytes); assay: Cytotoxicity, MTT assay; assay type: cell-based; conditions: vs untreated control
Protocol: In particular, the cytotoxicity was evaluated by the 3-(4,5-dimethylthiazol-2-yl)-2,5-diphenyltetrazolium bromide (MTT) assay and is expressed as the percentage of viability of peptide-treated cells compared to that of untreated control cells. As expected, after 2 and 24 h treatments, the cell viability decreased in a concentration-dependent manner for all peptides (Figure 2).
Figure 2 Viability of peptide-treated HaCaT cells evaluated by MTT assay at 2 h (a) and 24 h (b). All data are expressed as a percentage with respect to the untreated control cells and are the mean of three independent experiments ± standard error of the mean (SEM).
The human immortalized keratinocytes HaCaT cells (AddexBio, San Diego, CA) were cultured in Dulbecco’s modified Eagle’s medium containing 4 mM glutamine (DMEMg), supplemented with 10% heat-inactivated fetal bovine serum (FBS) and 0.1 mg/mL of penicillin and streptomycin, at 37 °C and 5% CO2, in 25 or 75 cm^2 flasks.
The quantification of cell viability was performed by the in vitro MTT [3-(4,5-dimethylthiazol-2-yl)-2,5-diphenyltetrazolium bromide] assay, as previously reported,[77] measuring the conversion of the soluble yellow dye MTT to insoluble purple formazan by mitochondrial dehydrogenases. More precisely, 4 × 10^4 HaCaT cells, suspended in DMEMg supplemented with 2% FBS without antibiotics, were plated in each well of the 96-well plate. After overnight incubation at 37 °C and 5% CO2, the medium of each well was replaced by DMEMg containing the peptide at different concentrations, as indicated. Controls were HaCaT cells not treated with the peptide. After 2 and 24 h of incubation at 37 °C and 5% CO2, the medium was discarded; 0.5 mg/mL of MTT in Hank’s buffer was added to each well, and the plate was incubated for further 4 h. Acidified isopropanol was then added to dissolve formazan crystals, and the absorbance of each well at 570 nm was measured using a microplate reader (Infinite M200; Tecan, Salzburg, Austria). The purple color intensity is directly proportional to the number of viable cells, which was expressed as a percentage compared to that of untreated control cells (100%).

[10] = CD in DPC micelles (20 mM), peptide 50 μM, 25 °C, DichroWeb
[11] = CD in SDS micelles (20 mM), peptide 50 μM, 25 °C, DichroWeb
[12] = CD in water, peptide 50 μM, 25 °C, DichroWeb
[13] = CD in water, peptide 50 μM, 25 °C, DichroWeb (CONTIN-LL, set-7; CDSSTR if NRMSD > 0.100)

SMILES	helicity [1] [%]	MIC S. aureus ATCC 25923 [2] [µM]	MIC S. epidermidis ATCC 12228 [3] [µM]	MIC B. megaterium Bm11 [4] [µM]	MIC E. coli ATCC 25922 [5] [µM]	MIC P. aeruginosa ATCC 27853 [6] [µM]	MIC A. baumannii ATCC 19606 [7] [µM]	helix-1 (regular α-helix) [8, 10] [%]	helix-2 (distorted α-helix) [8, 10] [%]	random [8, 10] [%]	β-strand-1 (regular β-strand) [8, 10] [%]	β-strand-2 (distorted β-strand) [8, 10] [%]	β-turn [8, 10] [%]	helix-1 (regular α-helix) [8, 11] [%]	helix-2 (distorted α-helix) [8, 11] [%]	random [8, 11] [%]	β-strand-1 (regular β-strand) [8, 11] [%]	β-strand-2 (distorted β-strand) [8, 11] [%]	β-turn [8, 11] [%]	helix-2 (distorted α-helix) [8, 12] [%]	also measured
CC[C@H](C)[C@H](NC(=O)[C@H](CCCNC(=N)N)NC(=O)[C@]1(C)CCCC=CCCC[C@](C)(NC(=O)[C@H](Cc2ccccc2)NC(=O)[C@H](Cc2c[nH]c3ccccc23)NC(=O)[C@@H]2CCCN2C(=O)[C@@H](NC(=O)[C@@H](N)Cc2ccccc2)C(C)C)C(=O)N[C@@H](CCCCN)C(=O)N[C@@H](Cc2ccccc2)C(=O)N[C@H](CC(C)C)C(=O)N1)C(=O)N[C@@H](CC(C)C)C(N)=O [compound 25]	23	>100	>100	100 (≈ 172 µg/mL)	>100	>100	>100	54	34	0	0	7	5	41	22	28	0	4	5	10	aggregation in water (shape of CD spectrum) ([8]; CD in water, peptide 50 μM, 25 °C): form α-helical aggregates; random [8, 12]: 41%; β-strand-1 (regular β-strand) [8, 12]: 12%; β-strand-2 (distorted β-strand) [8, 12]: 8%; β-turn [8, 12]: 16%; helix-1 (regular α-helix) [8, 13]: 13%
CC[C@H](C)[C@H](NC(=O)[C@H](CCCNC(=N)N)NC(=O)[C@@H]1CCCCNC(=O)CC[C@H](NC(=O)[C@H](Cc2ccccc2)NC(=O)[C@H](Cc2c[nH]c3ccccc23)NC(=O)[C@@H]2CCCN2C(=O)[C@@H](NC(=O)[C@@H](N)Cc2ccccc2)C(C)C)C(=O)N[C@@H](CCCCN)C(=O)N[C@@H](Cc2ccccc2)C(=O)N[C@H](CC(C)C)C(=O)N1)C(=O)N[C@@H](CC(C)C)C(N)=O [compound 24] (H-FVPWFEKF[dL]KRIL-NH2; lactam 6-10)	7	3.12 (≈ 5.32 µg/mL)	1.56 (≈ 2.66 µg/mL)	1.56 (≈ 2.66 µg/mL)	25 (≈ 42.6 µg/mL)	>100	3.12 (≈ 5.32 µg/mL)	69	23	0	0	3	4	59	18	0	11	5	7	6	HaCaT cell viability ([9]; 2 h treatment, 25 μM, mean of three independent experiments): 60–70%; HaCaT cell viability ([9]; 2 h treatment, 50 μM, mean of three independent experiments): less than 40%; HaCaT cell viability ([9]; 24 h treatment (sentence continues from 50 μM)): less than 20%; helix percentage (total) in SDS solution ([8]; CD in SDS micelles (20 mM), DichroWeb, regular plus distorted helix): about 80%; random [8, 12]: 50%; β-strand-1 (regular β-strand) [8, 12]: 16%; β-strand-2 (distorted β-strand) [8, 12]: 9%; β-turn [8, 12]: 17%; helix-1 (regular α-helix) [8, 13]: 1%
